Laboratory results published in US11793218B2, “Sweetener and flavor compositions, methods of making and methods of use thereof” (EPC Natural Products Co., Ltd., priority 2018, dated 2023).

Key:
[1] = Sensory evaluation of the samples prepared in Example 50 (Example 52); assay type: in vivo, human; set-up: key to Intensity of Smell: “+” for slight; “++” for moderate; “+++” for very strong
Protocol: The reaction partner (amino acid, carbohydrate source) were dissolved/suspended in the reaction solvent and transferred into a glass beaker filled with sand pre-heated for at least 30 minutes at the reaction temperature in a drying oven. After the planned reaction time, the vials were transferred into ice water. After cooling to room temperature, sensory analysis and analytical characterization was performed.
For evaluation of the taste profile, the samples were tested by a panel of four people. 1 trained taster tasted independently the samples first. The taster was asked to describe the taste profile and score 0-5 according to the increasing sugar likeness, bitterness, aftertaste and lingering taste profiles. The first taster was allowed to re-taste, and then make notes for the sensory attributes perceived. Afterwards, another 3 tasters tasted and the attributes were noted and discussed openly to find a suitable description. In case that more than 1 taster disagreed with the results, the tasting was repeated. In some sensory test results (above), the taste rating was expressed by “+”, which means the intensity of the factors is shown by three levels. “+” for slight, “++” for moderate and “+++” for very strong.

[2] = Sensory analysis of odor/smell, color and taste of Maillard reaction samples at 22 C (Examples 55-62); assay type: in vivo, human
Protocol: The reaction partners were dissolved in water and then warmed glycerin (60° C.) was added. […]
[…] After 20 minutes in the ice bath the sealed vials were put in a water bath set to 22° C.
The odor/smell was assessed independently by 3 persons; the final description was agreed after discussion. […] The taste was assessed independently by 3 persons either in the original samples or after appropriate dilution to achieve relevant concentrations of sugars and steviol-glycosides (i.e. 5-9% SE); the final description was agreed after discussion.

[3] = cited from earlier work
[4] = Sensory analysis of odor/smell, color and taste of Maillard reaction samples at 22 C (Examples 55-62); assay type: in vivo, human; remark: listed apart in the source
[5] = DPPH radical-scavenging activity, Example 65; assay type: physicochemical; conditions: 100° C., up to 5.0 hours, diluted 1:10; FIG. 50
Protocol: 1 mg 1,1-Diphenyl-2-picrylhydrazyl radical (DPPH)/ml ethanol, dilution to assay concentration were prepared in ethanol (40 μg/mL); Calibration samples were prepared with Ascorbic acid in a concentration of 0-10 μg/mL; as a negative control sample, water was used.
Samples in aqueous solution were used as such or diluted with water.
A 0.1 ml sample (or calibration standard) was mixed with 3.9 ml solution of DPPH (100 μMolar) and reacted while protected from light at room temperature for 30 min. Absorbance was determined at 517 nm against ethanol.
10 mM of amino acid and/or 10 mM sugar were dissolved in 10 ml 0.1 mM KH2PO4-buffer, pH=7.8.
The samples were kept at 100° C. in sealed glass vials (Pyrex 15 ml with screw caps) for 0 (before reaction), 2.5 or 5.0 hours. Thereafter the samples were transferred to an ice water bath and cooled down to room temperature. These samples were diluted 1:10 and used for the test assay for anti-oxidant potential.

[6] = Assay to test reducing power (active iron-III reduction), Example 64; assay type: physicochemical; conditions: 100° C., up to 5.0 hours, diluted 1:10; FIG. 49
[7] = Sensory evaluation of GSGs and SGs, Thaumatin, NHDC and combinations in water (Example 255); assay type: in vivo, human
Protocol: 4.5 ppm Thaumatin (equivalent to 10 ppm EPCalin) was dissolved in water. Increasing amounts of NHDC (1-5 ppm) were added to the solution and the sensory properties were evaluated.
50 ppm (GSGs and SGs) were dissolved in water. Increasing amounts of NHDC (1-5 ppm) were added to the solution and the sensory properties were evaluated.
50 ppm (GSGs and SGs) and 4.5 ppm Thaumatin (equivalent to 10 ppm EPCalin) were dissolved in water. Increasing amounts of NHDC (1-5 ppm) were added to the solution and the sensory properties were evaluated.
Sweetness intensity was rated on 5-point scale
Sweetness intensity was rated on a 5-point scale

[8] = HPLC/DAD/MS detection of MRI (Amadori) products and degradation kinetics of reactants at various pH-conditions; conditions: reaction of Phe and Xyl
[9] = Table 52.5, 1 ml water + 9 ml Glycerin, 2.0 h, 120° C.
[10] = Table 56.1, negative controls (no carbohydrate source), 10 ml glycerin/water=9:1, 100° C., 40 minutes
[11] = Table 52.6, Glycerin 10 ml, 100° C., 40 min
[12] = Table 52.7, Glycerin 10 ml, 1 h, 120° C.
[13] = Table 57.2, before reaction, 10 ml KH2PO4, pH 7.8
[14] = Table 52.1, samples of Example 50 after reaction
[15] = Table 57.3, after reaction, 10 ml KH2PO4, pH 7.8, 2.5 h, 120° C.
[16] = Table 52.2, 1 ml water + 9 ml Glycerin, 0.67 h, 100° C.

Question: For `N[C@@H](Cc1ccccc1)C(=O)O` [0.1 mMol Phe], which “Intensity of Smell” value [1, 9] is on record?
Answer: +

Question: And the Smell [1, 9]?
Answer: Caramel, burnt

Question: With `N[C@@H](Cc1ccc(O)cc1)C(=O)O` [18.1 mg Tyr] as the molecule, how does the Smell [2, 10] read?
Answer: neutral

Question: What about the Taste [2, 10] of the same molecule?
Answer: Slightly sweet

Question: Which results are given for `C[C@@H](O)[C@H](N)C(=O)O` [11.91 mg Thr]?
Answer: Smell [2, 10]: Vanilla, butter; Taste [2, 10]: Slightly sweet

Question: With `CC1(C)[C@@H](O[C@H]2O[C@H](C(=O)O)[C@@H](O)[C@H](O)[C@H]2O[C@@H]2O[C@H](C(=O)O)[C@@H](O)[C@H](O)[C@H]2O)CC[C@]2(C)[C@H]3C(=O)C=C4[C@@H]5C[C@@](C)(C(=O)O)CC[C@]5(C)CC[C@@]4(C)[C@]3(C)CC[C@@H]12` [Glycyrrhizin, reference compound] as the molecule, how does the “times sweeter than sucrose (sugar)” value ([3]; sweetness depends on the tested concentration compared with sucrose) read?
Answer: 30 to 50 times

Question: Which Taste [2, 10] does the source give for `O=C(O)[C@@H]1CCCN1` [11.5 mg Pro] here?
Answer: Slightly sweet

Question: What does the source list for `NCCCC[C@H](N)C(=O)O` [14.7 mg Lys]?
Answer: Smell [2, 10]: Popcorn; Taste [2, 10]: Slightly sweet

Question: With `OC[C@H]1OC(O)[C@H](O)[C@@H](O)[C@@H]1O` (stereo partly drawn) [10 mMol Glu] as the molecule, how does the Smell [1, 11] read?
Answer: Slightly Caramel

Question: And the Smell [1, 12]?
Answer: Slightly Caramel

Question: For `N[C@@H](Cc1ccccc1)C(=O)O` [16.5 mg Phe], which Smell ([2]; Example 58, after reaction) is on record?
Answer: Caramel, burnt

Question: And the Taste ([2]; Example 58, after reaction, after dilution 1:20)?
Answer: Sweet

Question: And the Smell ([2]; Example 58, before reaction)?
Answer: Neutral

Question: And the Smell [2, 10]?
Answer: Bloomy, caramel

Question: What about the Taste [2, 10] of the same molecule?
Answer: Slightly sweet

Question: And the Smell [4, 13]?
Answer: neutral

Question: And the Taste [4, 13]?
Answer: No taste

Question: Which results are given for `N[C@@H](Cc1ccccc1)C(=O)O` [Phe 60 mMol]?
Answer: Smell [1, 14]: flowery/bloomy-caramel; Taste [1, 14]: Sweet

Question: With `C[C@H](N)C(=O)O` [8.91 mg Ala] as the molecule, how does the Taste [2, 10] read?
Answer: Slightly sweet

Question: Which Smell [2, 10] does the source give for `CSCC[C@H](N)C(=O)O` [14.9 mg Met] here?
Answer: Sulfuric

Question: What about the Taste [2, 10] of the same molecule?
Answer: Slightly sweet

Question: Which results are given for `O=C[C@H](O)[C@@H](O)[C@H](O)[C@H](O)C(=O)O` [Glucuronic Acid]?
Answer: Smell [4, 15]: burnt bread; Taste [4, 15]: Bitter

Question: Which “radical scavenging properties (anti-oxidant properties)” value [5] does the source give for `C=C1C[C@@]23CC[C@H]4[C@@](C)(CCC[C@@]4(C)C(=O)O[C@@H]4O[C@H](CO)[C@@H](O)[C@H](O)[C@H]4O)[C@@H]2CC[C@]1(O[C@@H]1O[C@H](CO)[C@@H](O)[C@H](O[C@@H]2O[C@H](CO)[C@@H](O)[C@H](O)[C@H]2O)[C@H]1O[C@@H]1O[C@H](CO)[C@@H](O)[C@H](O)[C@H]1O)C3` [Reb-A, Rebaudioside A] here?
Answer: substantial anti-oxidant properties

Question: What about the “active iron-III reduction (anti-oxidant properties)” value [6] of the same molecule?
Answer: substantial anti-oxidant properties

Question: For `N[C@@H](CCC(=O)O)C(=O)O` [167 mMol Glu], which Smell [1, 14] is on record?
Answer: caramel

Question: And the Taste [1, 14]?
Answer: Sweet

Question: Which Smell [2, 10] does the source give for `N[C@@H](Cc1c[nH]c2ccccc12)C(=O)O` [20.42 mg Try] here?
Answer: Unpleasant (fecal)

Question: And the Taste [2, 10]?
Answer: Slightly sweet

Question: Which Smell [1, 9] does the source give for `O=C[C@H](O)[C@H]1OC(=O)[C@@H](O)[C@H]1O` [0.1 mMol GlucLac] here?
Answer: Burnt sugar

Question: What does the source list for `N[C@@H](Cc1ccccc1)C(=O)O` [3.3 mMol Phe]?
Answer: Smell ([1]; Table 52.6, Glycerin 10 ml, 100° C., 5 min): Slightly bloomy; Smell ([1]; Table 52.6, Glycerin 10 ml, 100° C., 10 min): flowery/bloomy; Smell ([1]; Table 52.6, Glycerin 10 ml, 100° C., 20 min): flowery/bloomy; Smell [1, 11]: flowery/bloomy; Smell [1, 12]: flowery/bloomy

Question: For `C=C1C[C@@]23CC[C@H]4[C@@](C)(CCC[C@@]4(C)C(=O)O[C@@H]4O[C@H](CO)[C@@H](O)[C@H](O)[C@H]4O)[C@@H]2CC[C@]1(O[C@@H]1O[C@H](CO)[C@@H](O)[C@H](O[C@@H]2O[C@H](CO)[C@@H](O)[C@H](O)[C@H]2O)[C@H]1O[C@@H]1O[C@H](CO)[C@@H](O)[C@H](O)[C@H]1O)C3` [0.05 mMol Reb-A], which Smell [1, 16] is on record?
Answer: neutral/unpleasant

Question: And the Taste [1, 16]?
Answer: sweet

Question: With `COc1ccc(CCC(=O)c2c(O)cc(O[C@@H]3O[C@H](CO)[C@@H](O)[C@H](O)[C@H]3O[C@@H]3O[C@@H](C)[C@H](O)[C@@H](O)[C@H]3O)cc2O)cc1O` [NHDC, Neohesperidin dihydrochalcone, reference compound] as the molecule, how does the “sensory properties (sweetness, onset, mouth-feel, lingering)” value ([7]; in water, 4.5 ppm Thaumatin and/or 50 ppm GSGs and SGs with NHDC) read?
Answer: long lasting lingering

Question: With `NC(=O)CC[C@H](N)C(=O)O` [14.62 mg Gln] as the molecule, how does the Taste [2, 10] read?
Answer: Slightly sweet

Question: Which Smell [2, 10] does the source give for `CC[C@H](C)[C@H](N)C(=O)O` [13.11 mg Ile] here?
Answer: Coffee

Question: And the Taste [2, 10]?
Answer: Slightly sweet

Question: For `O=C1O[C@@H]2[C@@H](O)[C@H](O)O[C@@H]2C1O` (stereo partly drawn) [Glucuronolactone], which Smell [4, 15] is on record?
Answer: Burnt sugar

Question: What about the Taste [4, 15] of the same molecule?
Answer: Bitter

Question: With `COc1ccc(CCC(=O)c2c(O)cc(O[C@@H]3O[C@H](CO)[C@@H](O)[C@H](O)[C@H]3O[C@@H]3O[C@@H](C)[C@H](O)[C@@H](O)[C@H]3O)cc2O)cc1O` [10 ppm NHDC] as the molecule, how does the Sensory evaluation ([7]; combinations of EPCalin and NHDC in water) read?
Answer: Sweet, steep onset of sweetness, no lingering

Question: For `OC[C@H]1OC(O)[C@H](O)[C@@H](O)[C@@H]1O` (stereo partly drawn) [9 mg Glucose], which Smell [4, 13] is on record?
Answer: neutral

Question: What about the Taste [4, 13] of the same molecule?
Answer: Sweet

Question: With `N[C@H](Cc1ccccc1)C(=O)O` [Phe] as the molecule, how does the Taste [4, 15] read?
Answer: sweet

Question: With `N[C@@H](CS)C(=O)O` [12.1 mg Cys] as the molecule, how does the Smell [2, 10] read?
Answer: Unpleasant (sulfur)

Question: And the Taste [2, 10]?
Answer: Slightly sweet

Question: Which results are given for `O=C[C@H](O)[C@@H](O)[C@H](O)CO` [Xyl]?
Answer: % degradation ([8]; pH = 5.5): 4.59%; % degradation ([8]; pH = 7.0): 6.3%; % degradation ([8]; pH = 8.5): 9.47%

Question: Which results are given for `N[C@@H](CO)C(=O)O` [10.5 mg Ser]?
Answer: Smell [2, 10]: Lotus flower; Taste [2, 10]: Slightly sweet

Question: Which Smell [1, 16] does the source give for `C[C@H](N)C(=O)O` [0.1 mMol Ala] here?
Answer: Agar

Question: And the Taste [1, 16]?
Answer: sweet

B1: Miraculin: A protein that does not taste sweet by itself but modifies taste receptors to make sour things taste sweet temporarily (protein, UniProt P13087 30-220, looked up)
Miraculin: DSAPNPVLDIDGEKLRTGTNYYIVPVLRDHGGGLTVSATTPNGTFVCPPRVVQTRKEVDHDRPLAFFPENPKEDVVRVSTDLNINFSAFMPCRWTSSTVWRLDKYDESTGQYFVTIGGVKGNPGPETISSWFKIEEFCGSGFYKLVFCPTVCGSCKVKCGDVGIYIDQKGRRRLALSDKPFAFEFNKTVYF
Question: For B1, which “Notes (sweet taste)” value ([3]; in vivo) is on record?
Answer: A protein that does not taste sweet by itself
